# Experimental data as given in patent publication US20220347075A1, “PEPTIDE BASED COSMETIC OR DERMATOLOGICAL TREATMENT OF THE SKIN AND ITS APPENDAGES” (Sederma, priority 2019, published 2022).
# Residues, ends and D or L forms follow the SMILES beside them. *: point of attachment. Palmitoyl = CCCCCCCCCCCCCCCC(=O)*
# Columns and labels:
# Assay type in all cases: cell-based
# [1] = system: Propionibacterium acnes; assay: Propionibacterium acnes growth inhibition test (OD 600 nm); conditions: for Time necessary to reach an OD of 1 (P. acnes growth): control 28 hours, anaerobic, 37° C.
# Description: Propionibacterium acnes Growth Inhibition Test Principle: suspensions of Propionibacterium acnes of equivalent density are cultured in a suitable medium in the presence (test case) or absence (control case) of the peptide according to the invention, in anaerobic condition, at 37° C. Samples are taken at regular intervals to measure the OD at 600 nm for following the growth of the bacterial population over time. The growth curve of each culture is thus established. Growth of the bacterium Propionibacterium acnes: time necessary to reach an OD of 1 in the control case and in the presence of the peptide according to the invention (N=2 independent experiments; n=2 cultures per case): […]
# [2] = system: normal human keratinocytes (NHK) exposed to UVB; assay: Immunoenzymatic assay (ELISA) of pro-inflammatory mediators of NHK exposed to UVB
# Description: Study by Immune Enzymatic Assay on NHK Culture
# Principle: NHKs in culture and at confluence are brought into contact with the peptide according to the invention (or its solvent) for 24 hours in a medium allowing their survival. Then the cell layers are irradiated with UVB in a physiological buffer and again brought into contact with the products to be tested for 24 hours. At the end of this incubation, the culture media are assayed by ELISA to know the amounts of pro-inflammatory mediators produced by these cells in response to irradiation. The results are compared to the control. A cell respiration test is conducted on the fixed mat to assess the number of cells and standardize the results. A study of variances and a Student's t test are carried out for judging the significance of the results.
# To test the active ingredients, keratinocytes were placed in culture under light stress conditions (application of UVB radiation) to mimic an experimental skin micro-inflammation. In this situation, a significant decrease in their secretome of inflammation mediators will be interpreted in the sense of a restorative and protective action of the skin.
# Variation compared to the control of the secretome of pro-inflammatory mediators by NHKs exposed to UVB (by immunoenzymatic assay)/effect of the peptide according to the invention at 4, 6 and 8 ppm: […]
# [3] = system: normal human keratinocytes (NHK); assay: LC-MS/MS protein study on NHK culture; conditions: 5 ppm; 7 days; p < 0.01
# Description: Liquid Chromatography/Mass Spectrometry (LC-MS/MS) Study on NHK Culture
# Principle: the same culture protocol as for the DNA-Array is used but with a longer culture time (7 days) because the protein productions take longer to be able to be detected with this method in LC-MS/MS. The peptide concentration applied to the cells is 5 ppm (vs. control case). The culture medium of the NHK (n=3) is changed every 3 days. At the end of this contact, the cells are lysed for extracting the proteins and to analyze them in the form of ground material by a method combining the action of a protease on the ground material, the separation of the fragments by liquid chromatography coupled with mass spectrometry, and then the identification and concentration of pre-existing proteins according to the nature and quantity of the fragments obtained (LC-MS/MS). To carry out LC-MS/MS analysis on equivalent amounts of proteins, the protein concentration is measured on the ground material. The results are expressed as an expression ratio between the treated case and the control case. A ratio greater than 1.5 is considered as an increase in protein production (+50% compared to the control). A study of variances and a Student's t test is carried out for judging the significance of the results.
# [4] = system: normal human keratinocytes (NHK); assay: Immunocytofluorescence labeling of involucrin, loricrin, filaggrin on NHK culture; conditions: 5 ppm, 7 days, immunofluorescence
# Description: Study by Immunocytofluorescence Labeling on KHN Culture
# Principle: confluent NHKs (n=3) are cultured as above for 7 days in the presence or absence (control) of the peptide according to the invention then the cell layers are fixed and labels by immunocytochemistry are carried out using antibodies directed against proteins characteristic of the maturation of the epidermis: involucrine, loricrin and filaggrin. Photos are captured using a fluorescence microscope and images analyzed using appropriate software. The results are compared with those of the control. The number of cells on the mats is evaluated by the Hoechst method (DNA staining), to reduce the fluorescence value to the number of cells. A variance study and a Student's t test are carried to judge the significance of the results.
# 1.1.1. Induction of the formation of involucrin, loricrin and filaggrin in NEM (by immunofluorescence)/effect of 5 ppm of the peptide according to the invention: […]
# [5] = system: normal human keratinocytes (NHK); assay: DNA microarray (DNA-Array) gene expression on NHK culture; conditions: 7 ppm
# Description: Study Using DNA Microarray Technology (DNA-Array) on NHK Culture
# Principle: the peptide according to the invention (7 ppm) is brought into contact for 24 or 48 hours with confluent NHKs (vs. control case). Then the NHK mats are rinsed, and the cells are crushed to extract their mRNA. These mRNAs are then converted into DNA sequences which are analyzed after depositing on DNA chips and amplification by a method like QRT-PCR. The mRNA variations due to the peptide are compared to the control case (peptide solvent). The results are expressed as an expression ratio between the treated case and the control case. A ratio greater than 1.5 is as an induction of gene expression (+50% compared to the control).
# [6] = system: normal human keratinocytes (NHK); assay: Molecular biology study (qRT-PCR) on NHK culture; conditions: 5 ppm, 24 hours, RT-PCR
# Description: Molecular Biology Study on NHK Culture
# Principle: in this test, confluent keratinocytes are brought into contact with the peptide according to the invention for 24 hours. The cells are then frozen to dryness and their RNAs are extracted, converted into DNA, then analyzed by qRT-PCR (“Quantitative real time reverse transcription polymerase chain reaction”). The results are expressed as an expression ratio between the treated case and the control case. A ratio greater than 1.5 is as an induction of gene expression (+50% compared to the control). A study of variances and a Student's t test are carried out for judging the significance of the results (n=4 for each condition).
smiles,measurement,setting,value
"CCCCCCCCCCCCCCCC(=O)N[C@@H](CCCCN)C(=O)N[C@H](C(=O)N[C@H](C(=O)N[C@@H](CCCCN)C(=O)N[C@@H](CO)C(=O)O)[C@@H](C)O)[C@@H](C)O [Pal-KTTKS, palmitoyl-lysyl-threonyl-threonyl-lysyl-serine] (Palmitoyl-KTTKS-OH)",Time necessary to reach an OD of 1 (P. acnes growth),[1]; 6 ppm of peptide,42 h
same,Growth of Propionibacterium acnes (result in words),[1]; 6 to 12 ppm,strongly and dose-dependently inhibits the growth
same,Time necessary to reach an OD of 1 (P. acnes growth),[1]; 9 ppm of peptide,54 h
same,Time necessary to reach an OD of 1 (P. acnes growth),[1]; 12 ppm of peptide,85.5 h
same,"IL6 secretion, variation vs control","[2]; 4 ppm, ns",−13%
same,"PGE2 secretion, variation vs control","[2]; 4 ppm, p < 0.01",−41%
same,"IL6 secretion, variation vs control","[2]; 6 ppm, p < 0.01",−68% (p < 0.01)
same,"PGE2 secretion, variation vs control","[2]; 6 ppm, p < 0.01",−69% (p < 0.01)
same,"IL6 secretion, variation vs control","[2]; 8 ppm, p < 0.01",−84% (p < 0.01)
same,"PGE2 secretion, variation vs control","[2]; 8 ppm, p < 0.01",−84% (p < 0.01)
same,"ADGRG1 protein, variation vs control",[3],×1.63;
same,"ASPRV1 protein, variation vs control",[3],×2.35; p < 0.01
same,"CALM5 protein, variation vs control",[3],×1.61; p < 0.01
same,"CRYAB (alpha-crystallin B) protein, variation vs control",[3],×2.24; p < 0.01
same,"FLG (filaggrin) protein, variation vs control",[3],×2.66; p < 0.01
same,"KRT1 protein, variation vs control",[3],×1.58; p < 0.01
same,"KRT6B protein, variation vs control",[3],×2.07; p < 0.01
same,"KRT9 protein, variation vs control",[3],×1.54; p < 0.01
same,"KRT10 protein, variation vs control",[3],×1.75; p < 0.01
same,"KRT15 protein, variation vs control",[3],×2.02; p < 0.01
same,"LOR (loricrin) protein, variation vs control",[3],×2.92; p < 0.01
same,"SPINK5 protein, variation vs control",[3],×1.58; p < 0.01
same,"TCHH (trichohyalin) protein, variation vs control",[3],×1.54; p < 0.01
same,"THBS1 protein, variation vs control",[3],×1.98;
same,Filaggrin: % of variation/control,[4]; p < 0.01,+310%; p < 0.01
same,Loricrin: % of variation/control,[4]; p < 0.01,+128%; p < 0.01
same,Involucrin: % of variation/control,[4]; p < 0.05,+1057%; p < 0.05
same,"ABHD5 gene expression, variation vs control",[5]; 24 h contact,×2.10
same,"ADGRG1 gene expression, variation vs control",[5]; 24 h contact,×1.92
same,"ALOX12B gene expression, variation vs control",[5]; 24 h contact,×2.48
same,"ALOXE3 gene expression, variation vs control",[5]; 24 h contact,×2.92
same,"ASPRV1 gene expression, variation vs control",[5]; 24 h contact,×3.35
same,"BMP2 gene expression, variation vs control",[5]; 24 h contact,×3.63
same,"BMP6 gene expression, variation vs control",[5]; 24 h contact,×13
same,"ELOVL4 gene expression, variation vs control",[5]; 24 h contact,×5.41
same,"FN1 gene expression, variation vs control",[5]; 24 h contact,×3.38
same,"GSK3B (glycogen synthase kinase 3 beta) gene expression, variation vs control",[5]; 24 h contact,×1.64
same,"GSKA (glycogene synthase kinase 3 alpha) gene expression, variation vs control",[5]; 24 h contact,×1.57
same,"IL37 gene expression, variation vs control",[5]; 24 h contact,×3.60
same,"LCE2C gene expression, variation vs control",[5]; 24 h contact,×26.30
same,"LCE3A gene expression, variation vs control",[5]; 24 h contact,×65.26
same,"LCE3B gene expression, variation vs control",[5]; 24 h contact,×123.00
same,"LCE3D gene expression, variation vs control",[5]; 24 h contact,×110.46
same,"LCE3E gene expression, variation vs control",[5]; 24 h contact,×135.99
same,"LOR gene expression, variation vs control",[5]; 24 h contact,×1.86
same,"PPARD gene expression, variation vs control",[5]; 24 h contact,×1.97
same,"PRSS8 gene expression, variation vs control",[5]; 24 h contact,×3.72
same,"SPRR2A gene expression, variation vs control",[5]; 24 h contact,×8.71
same,"SPRR2B gene expression, variation vs control",[5]; 24 h contact,×58.44
same,"SPRR2C gene expression, variation vs control",[5]; 24 h contact,×6.30
same,"SPRR2D gene expression, variation vs control",[5]; 24 h contact,×7.87
same,"SPRR2E gene expression, variation vs control",[5]; 24 h contact,×6.47
same,"SPRR2F gene expression, variation vs control",[5]; 24 h contact,×6.00
same,"SPRR2G gene expression, variation vs control",[5]; 24 h contact,×13.43
same,"SPRR3 gene expression, variation vs control",[5]; 24 h contact,×1.90
same,"SPRR4 gene expression, variation vs control",[5]; 24 h contact,×2.95
same,"TGM1 gene expression, variation vs control",[5]; 24 h contact,×1.70
same,"CDSN gene expression, variation vs control",[5]; 24 hours of contact,×3.36
same,"CGNL1 gene expression, variation vs control",[5]; 24 hours of contact,×3.37
same,"CLDN4 gene expression, variation vs control",[5]; 24 hours of contact,×5.16
same,"CLDN7 gene expression, variation vs control",[5]; 24 hours of contact,×4.47
same,"CLDN12 gene expression, variation vs control",[5]; 24 hours of contact,×2.68
same,"CLDN15 gene expression, variation vs control",[5]; 24 hours of contact,×4.80
same,"CLDN17 gene expression, variation vs control",[5]; 24 hours of contact,×113.20
same,"CLDN23 gene expression, variation vs control",[5]; 24 hours of contact,×3.69
same,"KLK14 gene expression, variation vs control",[5]; 24 hours of contact,×1.79
same,"OCLN gene expression, variation vs control",[5]; 24 hours of contact,×5.91
same,"TJP1 gene expression, variation vs control",[5]; 24 hours of contact,×2.15
same,"CERS1 gene expression, variation vs control",[5]; 48 h contact,×3.48
same,"CRNN gene expression, variation vs control",[5]; 48 h contact,×4.73
same,"TCHH gene expression, variation vs control",[5]; 48 h contact,×4.87
same,"SOD2 gene expression, variation vs control",[5]; 48 hours contact,×2.93
same,"CRYAB (alpha-crystallin B) gene expression, variation vs control",[6]; p < 0.01,×3.47; p < 0.01
same,"Involucrine gene expression, variation vs control",[6]; p < 0.01,×1.64; p < 0.01
same,"Transglutaminase 1 gene expression, variation vs control",[6]; p < 0.05,×1.82; p < 0.05
